Experimental data published in patent publication US10526316B2, “Quinoxaline and pyridopyrazine derivatives as PI3Kβ inhibitors” (Janssen Pharmaceutica NV, priority 2015, dated 2020).
pIC50, pKd: −log10 of the molar value. Where two headings read alike, the source gives them in different places.

Tests used:
[1] = biological target: T1, PI3Kδ (Homo sapiens, UniProt O00329); experiment: Enzyme binding assay (KINOMEscan, DiscoveRx); details: PIK3Cδ_h
T1 construct: purchased DiscoveRx Corporation, San Diego (contract service, KINOMEscan)
T1 sequence (O00329 1-1044): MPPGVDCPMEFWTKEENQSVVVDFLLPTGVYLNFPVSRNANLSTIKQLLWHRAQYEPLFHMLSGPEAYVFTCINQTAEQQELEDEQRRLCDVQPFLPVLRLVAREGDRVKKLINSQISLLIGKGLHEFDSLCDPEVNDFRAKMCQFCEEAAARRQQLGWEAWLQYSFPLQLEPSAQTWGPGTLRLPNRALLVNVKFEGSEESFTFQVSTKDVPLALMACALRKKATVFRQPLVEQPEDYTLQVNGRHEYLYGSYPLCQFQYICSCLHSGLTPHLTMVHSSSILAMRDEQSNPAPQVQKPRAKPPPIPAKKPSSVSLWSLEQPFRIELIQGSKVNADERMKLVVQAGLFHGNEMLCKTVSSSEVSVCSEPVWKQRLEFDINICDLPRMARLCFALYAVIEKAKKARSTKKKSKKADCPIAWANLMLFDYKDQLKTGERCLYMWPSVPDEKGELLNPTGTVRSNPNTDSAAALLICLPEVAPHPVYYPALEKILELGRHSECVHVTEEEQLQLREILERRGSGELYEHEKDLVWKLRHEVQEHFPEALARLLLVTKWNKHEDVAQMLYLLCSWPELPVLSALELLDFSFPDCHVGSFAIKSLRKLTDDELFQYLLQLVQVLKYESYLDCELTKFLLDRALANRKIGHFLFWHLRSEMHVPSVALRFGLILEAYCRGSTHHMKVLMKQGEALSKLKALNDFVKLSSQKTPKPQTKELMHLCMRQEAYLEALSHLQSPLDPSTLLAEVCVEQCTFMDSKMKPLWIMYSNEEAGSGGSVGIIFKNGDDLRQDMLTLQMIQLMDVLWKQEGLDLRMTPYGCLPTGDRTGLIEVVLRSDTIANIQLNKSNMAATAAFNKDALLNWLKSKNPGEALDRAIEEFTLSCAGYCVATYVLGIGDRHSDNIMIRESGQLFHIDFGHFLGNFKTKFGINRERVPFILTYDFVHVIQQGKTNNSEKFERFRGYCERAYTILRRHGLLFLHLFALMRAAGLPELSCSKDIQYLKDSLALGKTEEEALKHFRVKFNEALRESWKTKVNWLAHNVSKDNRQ
Summary of the method: (§1)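 Affinity for each kinase was determined by KINOMEscan profiling.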

[2] = tested on: Akt phosphorylated at Thr308 in PC-3 cells; experiment: Cellular assay: phosphorylation of Akt at Thr308 in PC-3 cells (MSD ELISA); type: cell-based; details: PC-3 cells, 60 min compound incubation, MSD ELISA, read-out: IC50 pAkt_Thr308
Summary of the method: (§2)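 PC-3 cells were exposed to compound or 0.3% DMSO for 60 min at 37° C, 5% CO2, then lysed in ice-cold buffer. Phospho-Akt was captured on site-specific antibody-coated plates and detected with Sulfo-tag anti-total Akt by electrochemiluminescence. IC50 values came from five-concentration response curves.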

[3] = biological target: T2, PI3Kβ (Homo sapiens, UniProt P42338); experiment: Enzyme binding assay (KINOMEscan, DiscoveRx); details: PIK3Cβ_h, read-out: Kd PIK3Cβ_h
T2 construct: purchased DiscoveRx Corporation, San Diego (contract service, KINOMEscan)
T2 sequence (P42338 whole entry): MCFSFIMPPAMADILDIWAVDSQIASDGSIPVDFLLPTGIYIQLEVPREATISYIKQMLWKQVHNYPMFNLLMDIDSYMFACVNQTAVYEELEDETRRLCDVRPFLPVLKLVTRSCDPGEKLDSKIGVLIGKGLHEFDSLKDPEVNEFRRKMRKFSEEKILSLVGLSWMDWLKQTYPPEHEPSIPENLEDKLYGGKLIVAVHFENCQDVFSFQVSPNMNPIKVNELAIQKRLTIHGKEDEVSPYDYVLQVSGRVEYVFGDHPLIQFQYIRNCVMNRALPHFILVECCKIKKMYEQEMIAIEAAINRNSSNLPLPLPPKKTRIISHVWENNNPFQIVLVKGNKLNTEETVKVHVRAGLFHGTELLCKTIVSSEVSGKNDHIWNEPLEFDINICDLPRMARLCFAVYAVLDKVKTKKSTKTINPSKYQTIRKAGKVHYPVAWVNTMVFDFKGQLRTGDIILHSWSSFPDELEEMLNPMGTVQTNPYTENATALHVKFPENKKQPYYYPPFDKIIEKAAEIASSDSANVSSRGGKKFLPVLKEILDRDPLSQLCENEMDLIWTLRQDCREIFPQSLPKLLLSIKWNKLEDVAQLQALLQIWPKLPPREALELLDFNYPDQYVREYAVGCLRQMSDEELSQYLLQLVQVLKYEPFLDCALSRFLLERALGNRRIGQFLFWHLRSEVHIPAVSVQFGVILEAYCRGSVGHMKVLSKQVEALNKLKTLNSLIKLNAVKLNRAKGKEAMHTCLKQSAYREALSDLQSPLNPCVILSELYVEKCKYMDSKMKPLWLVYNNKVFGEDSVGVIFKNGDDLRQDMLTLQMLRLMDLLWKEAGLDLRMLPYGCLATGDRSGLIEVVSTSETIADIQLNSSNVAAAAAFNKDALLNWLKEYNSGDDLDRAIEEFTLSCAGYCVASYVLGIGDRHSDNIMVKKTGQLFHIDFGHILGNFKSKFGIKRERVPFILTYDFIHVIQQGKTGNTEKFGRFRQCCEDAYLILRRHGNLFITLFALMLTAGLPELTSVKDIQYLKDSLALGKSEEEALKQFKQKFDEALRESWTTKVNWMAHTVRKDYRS
Summary of the method: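 Values are Kd in nM, the binding constant of each inhibitor for the kinase, obtained from a KINOMEscan enzyme binding assay.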

[4] = tested on: Akt phosphorylated at Ser473 in PC-3 cells; experiment: Cellular assay: phosphorylation of Akt at Ser473 in PC-3 cells (MSD ELISA); type: cell-based; details: PC-3 cells, 60 min compound incubation, MSD ELISA, read-out: IC50 pAkt_S473
Summary of the method: as §2

[5] = biological target: T3, kinase enzymes (Homo sapiens, UniProt P42336); experiment: Enzyme binding assay (KINOMEscan, DiscoveRx), further kinases of Table A; details: PIK3Cα_h
T3 construct: purchased DiscoveRx Corporation, San Diego (contract service, KINOMEscan)
T3 sequence (P42336 whole entry): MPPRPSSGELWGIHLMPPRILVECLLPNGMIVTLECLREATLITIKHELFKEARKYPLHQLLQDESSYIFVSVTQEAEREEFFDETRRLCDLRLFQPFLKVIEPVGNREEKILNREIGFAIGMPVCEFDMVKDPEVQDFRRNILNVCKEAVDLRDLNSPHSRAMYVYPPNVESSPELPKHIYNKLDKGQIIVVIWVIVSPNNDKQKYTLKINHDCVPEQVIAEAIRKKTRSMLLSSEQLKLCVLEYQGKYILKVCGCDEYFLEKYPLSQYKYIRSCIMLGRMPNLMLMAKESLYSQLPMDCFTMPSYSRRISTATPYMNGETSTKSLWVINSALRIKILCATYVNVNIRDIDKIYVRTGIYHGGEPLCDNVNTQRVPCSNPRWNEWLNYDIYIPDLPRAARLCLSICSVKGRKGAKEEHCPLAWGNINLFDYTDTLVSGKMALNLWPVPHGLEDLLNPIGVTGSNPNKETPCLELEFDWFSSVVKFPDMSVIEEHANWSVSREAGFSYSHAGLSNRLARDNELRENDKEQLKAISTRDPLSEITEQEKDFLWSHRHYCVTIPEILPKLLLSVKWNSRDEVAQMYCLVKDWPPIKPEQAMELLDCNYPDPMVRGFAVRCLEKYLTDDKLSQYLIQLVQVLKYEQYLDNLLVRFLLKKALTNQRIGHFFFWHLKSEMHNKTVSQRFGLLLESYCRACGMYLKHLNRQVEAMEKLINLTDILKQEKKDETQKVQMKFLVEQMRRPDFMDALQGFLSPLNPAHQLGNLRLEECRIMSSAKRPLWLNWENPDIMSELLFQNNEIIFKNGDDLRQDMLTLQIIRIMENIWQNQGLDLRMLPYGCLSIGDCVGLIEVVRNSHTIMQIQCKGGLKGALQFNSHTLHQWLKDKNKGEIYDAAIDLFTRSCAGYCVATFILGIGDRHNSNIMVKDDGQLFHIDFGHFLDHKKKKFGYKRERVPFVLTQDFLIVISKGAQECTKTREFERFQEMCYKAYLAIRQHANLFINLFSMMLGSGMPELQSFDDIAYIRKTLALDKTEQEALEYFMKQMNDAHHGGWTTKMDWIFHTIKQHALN
Summary of the method: as §1

[6] = biological target: T4, kinase enzymes (Homo sapiens, UniProt P48736); experiment: as above; details: PIK3Cγ_h
T4 construct: purchased DiscoveRx Corporation, San Diego (contract service, KINOMEscan)
T4 sequence (P48736 whole entry): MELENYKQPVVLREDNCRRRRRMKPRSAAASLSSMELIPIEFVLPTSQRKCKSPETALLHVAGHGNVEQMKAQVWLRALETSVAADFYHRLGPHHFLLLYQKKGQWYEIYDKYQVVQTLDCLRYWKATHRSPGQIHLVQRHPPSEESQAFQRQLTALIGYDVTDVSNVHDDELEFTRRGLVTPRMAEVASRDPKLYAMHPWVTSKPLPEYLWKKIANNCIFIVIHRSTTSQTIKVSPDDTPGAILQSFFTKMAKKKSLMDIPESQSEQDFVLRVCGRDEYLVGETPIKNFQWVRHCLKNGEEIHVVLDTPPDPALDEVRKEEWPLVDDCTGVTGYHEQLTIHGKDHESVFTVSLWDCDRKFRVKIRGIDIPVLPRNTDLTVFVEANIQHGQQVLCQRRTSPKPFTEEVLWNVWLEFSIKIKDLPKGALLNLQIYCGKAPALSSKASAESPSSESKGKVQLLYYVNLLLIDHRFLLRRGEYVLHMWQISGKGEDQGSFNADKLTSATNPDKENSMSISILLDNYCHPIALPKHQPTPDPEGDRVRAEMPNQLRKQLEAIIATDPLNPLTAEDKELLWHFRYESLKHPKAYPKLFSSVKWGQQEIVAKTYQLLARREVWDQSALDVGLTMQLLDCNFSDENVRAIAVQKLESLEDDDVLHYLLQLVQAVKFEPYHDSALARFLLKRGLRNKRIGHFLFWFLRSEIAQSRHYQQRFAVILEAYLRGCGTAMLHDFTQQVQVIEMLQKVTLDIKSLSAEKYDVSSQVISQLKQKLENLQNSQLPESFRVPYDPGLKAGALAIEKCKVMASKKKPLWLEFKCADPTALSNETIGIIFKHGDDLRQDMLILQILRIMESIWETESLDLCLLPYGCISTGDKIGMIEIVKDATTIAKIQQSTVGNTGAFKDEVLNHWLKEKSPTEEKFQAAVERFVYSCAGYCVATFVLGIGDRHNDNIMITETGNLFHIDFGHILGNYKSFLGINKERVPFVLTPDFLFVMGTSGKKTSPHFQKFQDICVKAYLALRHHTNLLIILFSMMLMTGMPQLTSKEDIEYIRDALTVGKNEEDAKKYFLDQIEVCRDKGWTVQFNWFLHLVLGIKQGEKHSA
Summary of the method: as §1

[7] = biological target: T5, kinase enzymes (Homo sapiens, UniProt P42345); experiment: as above; details: MTOR_h
T5 construct: purchased DiscoveRx Corporation, San Diego (contract service, KINOMEscan)
Summary of the method: as §1

pKd [1] | pIC50 ([2]; Homo sapiens, PC-3, 1 h) | melting point [°C] | pKd [3] | pIC50 ([4]; Homo sapiens, PC-3, 1 h) | pKd [5] | pKd [6] | pKd [7] | pIC50 [2] | pIC50 [4] | Compound
8.52 | 9.00 | 170 | 10.00 | ~8.52 | 7.60 | 6.97 | 4.91 | – | – | CNCCNC(=O)c1cc(C2CCCN2c2cc(F)cc(F)c2)c2nc(N3CCOCC3)cnc2c1 (single isomer, unassigned) [Compound 17]
7.29 | 7.49 | > 260 | 9.00 | 7.28 | 7.60 | 6.63 | 5.69 | – | – | O=C(O)c1cc(C2CCCN2c2cc(F)cc(F)c2)c2nc(N3CCOCC3)cnc2c1 (stereo not drawn) [Compound 62]
5.23 | < 6.29 | 80 | 7.17 | < 6.29 | 5.19 | < 4.52 | < 4.52 | – | – | CCc1cccc(NC(C)c2cc(C(=O)N3CCOCC3)cc3ncc(N4CCOCC4)nc23)c1 (stereo not drawn) [Compound 125]
6.37 | 6.80 | 164 | 8.22 | ~6.56 | 5.29 | 4.95 | < 4.52 | – | – | CC(Nc1ccc(F)c(F)c1)c1cc(C(=O)NCCCO)cc2ncc(N3CCOCC3)nc12 (stereo not drawn) [Compound 280]
6.02 | – | 107 | 8.52 | – | 5.60 | 5.02 | 4.51 | 7.17 | 6.75 | CC(Nc1ccc(F)c(F)c1)c1cc(C(=O)NC[C@@H](C)O)cc2ncc(N3CCOCC3)nc12 (single isomer, unassigned) [Compound 346a]
6.09 | 7.18 | 80 | 8.10 | 6.31 | 5.44 | 5.06 | < 4.52 | – | – | CC(Oc1ccccc1)c1cc(C(=O)N(C)C)cc2ncc(N3CCOCC3)nc12 (stereo not drawn) [Compound 151]
5.65 | < 6.29 | 80 | 7.48 | < 6.29 | 5.46 | 4.85 | 4.74 | – | – | CN(C)C(=O)c1cc(N2CCCC2c2cc(F)cc(F)c2)c2nc(N3CCOCC3)cnc2c1 (stereo not drawn) [Compound 395]
6.38 | 7.13 | 80 | 8.00 | ~6.90 | 4.96 | 4.57 | < 4.52 | – | – | CC(Oc1ccc(F)c(F)c1)c1cc(C(=O)N2CC[C@H](N(C)C)C2)cc2ncc(N3CCOCC3)nc12 (single isomer, unassigned) [Compound 363a]
< 4.52 | – | 112 | 5.67 | – | < 4.52 | 5.29 | < 4.52 | < 6.29 | < 6.29 | CC(Nc1cc(F)c(F)c(F)c1)c1cc(C(=O)NC[C@@H](C)O)cc2ncc(N3CCOCC3)nc12 (single isomer, unassigned) [Compound 284b]
6.55 | – | 80 | 8.70 | – | 5.36 | 4.83 | < 4.52 | 7.55 | 7.10 | CNCCOCCN(C)C(=O)c1cc(C(C)Nc2ccc(F)c(F)c2)c2nc(N3CCOCC3)cnc2c1 (single isomer, unassigned) [Compound 345a]
< 4.52 | – | 163 | 6.12 | – | < 4.52 | < 4.52 | < 4.52 | < 6.29 | < 6.29 | CC(Nc1cc(F)cc(F)c1)c1cc(CN2CCn3nccc3C2)cc2ncc(N3CCOCC3)nc12 (single isomer, unassigned) [Compound 222]
6.76 | 7.18 | 80 | 9.00 | 7.13 | 6.63 | 6.20 | 4.63 | – | – | CN(C)C(=O)c1cc(C2CCCN2c2cc(F)cc(C=O)c2)c2nc(N3CCOCC3)cnc2c1 (stereo not drawn) [Compound 44]
6.72 | 7.72 | 140 | 8.70 | 7.54 | 5.83 | 5.26 | < 4.52 | – | – | CC(Nc1ccc(F)c(F)c1)c1cc(C(=O)N2CC[C@@H](O)C2)cc2ncc(N3CCOCC3)nc12 (single isomer, unassigned) [Compound 300a]
4.79 | < 6.29 | 116 | 5.48 | < 6.29 | 4.64 | < 4.52 | < 4.52 | – | – | CC(Nc1ccc(F)c(F)c1)c1cc(C(=O)N2C[C@@H](C)N[C@@H](C)C2)cc2ncc(N3CCOCC3)nc12 (single isomer, unassigned) [Compound 357a]
7.77 | 8.70 | 80 | 9.00 | 8.22 | 7.42 | 6.70 | 4.97 | – | – | O=C(c1cc(C2CCCN2c2cc(F)cc(F)c2)c2nc(N3CCOCC3)cnc2c1)N1CC(O)C1 (stereo not drawn) [Compound 65]
5.77 | 6.63 | 80 | 7.80 | 6.36 | 5.18 | 4.56 | < 4.52 | – | – | CC(Nc1cc(F)c(F)c(F)c1)c1cc(C(=O)NCC(C)(C)O)cc2ncc(N3CCOCC3)nc12 (stereo not drawn) [Compound 292]
6.79 | – | 90 | 9.00 | – | 5.56 | 5.26 | < 4.52 | ~7.07 | ~6.96 | CNCCOCCN(C)C(=O)c1cc(C(C)Nc2cc(F)c(F)c(F)c2)c2nc(N3CCOCC3)cnc2c1 (single isomer, unassigned) [Compound 315b]
7.24 | 8.22 | 80 | 9.00 | 7.89 | 6.65 | 5.89 | 4.82 | – | – | O=C(c1cc(C2CCCN2c2cc(F)cc(F)c2)c2nc(N3CCOCC3)cnc2c1)N1CCC[C@H]1CO (mixture of isomers) [Compound 64]
8.70 | 9.00 | 80 | 10.00 | 8.70 | 7.52 | 8.40 | < 4.52 | – | – | NC1CCN(C(=O)c2cc(C3CCCN3c3cc(F)cc(F)c3)c3nc(N4CCOCC4)cnc3c2)CC1 (stereo not drawn) [Compound 75]
4.80 | < 6.29 | 80 | 5.29 | 6.32 | 4.83 | 4.60 | < 4.52 | – | – | CC(c1cc(C(=O)N(C)C)cc2ncc(N3CCOCC3)nc12)N(C)c1cccc(Cl)c1 (single isomer, unassigned) [Compound 140]
7.12 | – | 218 | 9.40 | – | 6.56 | 5.94 | 4.58 | 8.05 | 7.74 | CC(Nc1cc(F)cc(F)c1)c1cc(C(=O)N(C)C)cc2ncc(N3CCOCC3)nc12 (single isomer, unassigned) [Compound 12]
